Structure (SMILES) | melting point [°C]
CC(C)(F)c1cnn2c(-c3ccc(F)c(-c4ccc(F)cc4C#N)c3F)cnc2n1 [Example 3, 3′-[3-(1-Fluoro-1-methylethyl)imidazo[1,2-b][1,2,4]triazin-7-yl]-4,2′,6′-trifluorobiphenyl-2-carbonitrile] | 166 to 169
CC(C)(O)c1cnn2c(-c3ccc(F)c(-c4c(F)cccc4C#N)c3F)cnc2n1 [Example 2, 3′-[3-(1-Hydroxy-1-methylethyl)imidazo[1,2-b][1,2,4]triazin-7-yl]-6,2′,6′-trifluorobiphenyl-2-carbonitrile] | 177 to 179
